Consider 36 compounds from patent US20150225369A1, “DDR2 INHIBITORS FOR THE TREATMENT OF OSTEOARTHRITIS” (Merck Patent GmbH, priority 2012, published 2015).

Some results are limits rather than exact numbers.

One assay has as its target T1, His-tagged human recombinant DDR-2 kinase domain (His-TEV-DDR2 467-855 aa) (Homo sapiens, UniProt Q16832).
T1 construct: His-TEV-DDR2 467-855 aa
T1 sequence (Q16832 467-855): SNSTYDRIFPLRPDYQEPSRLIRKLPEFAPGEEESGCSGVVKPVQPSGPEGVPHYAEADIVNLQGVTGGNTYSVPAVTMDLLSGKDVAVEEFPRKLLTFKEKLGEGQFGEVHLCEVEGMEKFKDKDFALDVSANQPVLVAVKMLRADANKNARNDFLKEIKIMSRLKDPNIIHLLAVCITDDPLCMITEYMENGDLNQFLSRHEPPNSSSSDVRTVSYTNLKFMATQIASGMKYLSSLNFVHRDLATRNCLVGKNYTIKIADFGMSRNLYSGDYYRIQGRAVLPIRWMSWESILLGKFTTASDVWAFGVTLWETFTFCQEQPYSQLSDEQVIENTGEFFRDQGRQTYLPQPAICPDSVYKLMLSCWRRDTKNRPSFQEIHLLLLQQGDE
The experiment in a line: Autophosphorylation assay for biochemical activity testing of DDR2 (HTRF). The conditions noted are these: 4 nM DDR2 kinase domain, 150 μM ATP, 150 min at 22° C. As for the experimental part: The autophosphorylation assay was run in two steps: the enzymatic reaction in which His-tagged DDR2 with ATP as co-substrate phosphorylates itself and the detection reaction where a time resolved FRET between XL665® labelled anti-6His antibody bound to the His-tag of the enzyme and cryptate labelled anti-phospho-Tyrosine-antibody (PT66) bound the phosphorylated Tyrosine residue of DDR2 was analysed. The autophosphorylation activity was detectable directly via the increase in HTRF signal.
The autophosphorylation assay was performed as 1536 well or 384 well HTRF® (Cisbio, Codolet, France) assay format in Greiner low volume medium binding 384-well microtiter plates and was used for high throughput screen. […] The ratio of the emission signals was determined. The full value used was the inhibitor-free reaction.
Consider `CNC(=O)c1cc(Oc2ccc(COC(=O)Nc3cc(C(F)(F)F)cnc3O)cc2)ccn1` [compound 5], for which the IC50 turned out to be 0.61 µM.
The same measure, in the same setting: for `CNC(=O)c1cc(Oc2ccc(CNC(=O)Nc3cc(C)ccn3)cc2)ccn1` [compound 14] the value was 0.57 µM; for `CNC(=O)c1cc(Oc2ccc(CNC(=O)Nc3cccnc3OC)cc2)ccn1` [compound 4], 1.6 µM; for `COc1nc2ccccc2cc1NC(=O)NCc1ccc(Oc2ccnc(C)c2)c(C)c1` [compound 33], 1.7 µM.
On the same count and under the same terms, for `CNC(=O)c1cc(Oc2ccc(CNC(=O)Nc3cc(C)cnc3Cl)cc2)ccn1` [compound 22] the value was 0.71 µM.
Take `Cn1cc(C(F)(F)F)cc(NC(=O)NCc2ccc(Oc3ccncc3C(F)(F)F)cc2)c1=O` [compound 13]: the IC50 stood at 1.6 µM.
On the same count and under the same terms, the figure for `CNC(=O)c1cc(Oc2ccc(CNC(=O)Nc3cc(C(F)(F)F)cn(Cc4ccccc4)c3=O)cc2)ccn1` [compound 12] is 0.26 µM.

Still in this assay, the particulars now being: Table 6; 4 nM DDR2 kinase domain, 150 μM ATP.
Turning to `CNC(=O)c1cc(Oc2ccc(OCC(=O)Nc3cc(C(F)(F)F)cn(C)c3=O)cc2)ccn1` [compound 4], the IC50 stood at 0.57 µM.

The assay is the same for the next values; noted with them: biochemical DDR2 autophosphorylation.
For `CNC(=O)c1cc(Oc2ccc(CNC(=O)Nc3cc(C(F)(F)F)ccc3OCC(=O)OC)cc2)ccn1` [compound 92, (2-{3-[4-(2-Methylcarbamoyl-pyridin-4-yloxy)-benzyl]-ureido}-4-trifluoromethyl-phenoxy)-acetic acid methyl ester], the half-inhibitory concentration (IC50) was determined as 0.038 µM.
Still for that read-out and setting: the figure for `CNC(=O)c1cc(Oc2ccc(CNC(=O)Nc3cc(C(F)(F)F)ccc3OC(C)(C)C(N)=O)cc2)ccn1` [compound 199, 4-(4-{3-[2-(1 -Carbamoyl-1-methyl-ethoxy)-5-trifluoromethyl-phenyl]-ureidomethyl}-phenoxy)-pyridine-2-carboxylic acid methylamide] is ≥ 100 µM.
On to `O=C(NCc1ccc(Oc2ccncc2)cc1)Nc1ccc(Br)c(C(F)(F)F)c1` [compound 64, 1-(4-Bromo-3-trifluoromethyl-phenyl)-3-[4-(pyridin-4-yloxy)-benzyl]-urea], for which the IC50 was determined as 1.7 µM.
On the same count and under the same terms, the figure for `CNC(=O)c1cc(Oc2ccc(CNC(=O)Nc3cc4ccccc4cn3)cc2)ccn1` [compound 96, 4-{4-[(3-Isoquinolin-3-yl-ureido)-methyl]-phenoxy}-pyridine-2-carboxylic acid methylamide] is 0.17 µM.
For `O=C(Nc1ccc(Cl)c(C(F)(F)F)c1)NC1(c2ccc(Oc3ccncc3)cc2)CC1` [compound 68, 1-(4-Chloro-3-trifluoromethyl-phenyl)-3-{1-[4-(pyridin-4-yloxy)-phenyl]-cyclopropyl}-urea], the IC50 came to 4.6 µM.
Consider `Cc1cc(NC(=O)NCc2ccc(Oc3ccncc3)c(C)c2)c(OCCN(C)C)cc1Cl` [compound 246, 1-[4-Chloro-2-(2-dimethylamino-ethoxy)-5-methyl-phenyl]-3-[3-methyl-4-(pyridin-4-yloxy)-benzyl]-urea], for which the IC50 is 0.23 µM.
Same read-out and setting: the figure for `O=C(NCc1ccc(Oc2ccncc2)cc1)Nc1ccc(F)cc1` [compound 11] is 3.4 µM.
As for `CNC(=O)c1cc(Oc2ccc(CNC(=O)Nc3cc(C)c(Cl)cc3OC)cc2F)ccn1` [compound 218, 4-{4-[3-(4-Chloro-2-methoxy-5-methyl-phenyl)-ureidomethyl]-2-fluoro-phenoxy}-pyridine-2-carboxylic acid methylamide], the IC50 was found to be 0.15 µM.
`O=C(NCc1ccc(Oc2ccncc2)cc1)Nc1cc(Cl)cc(Cl)c1` [compound 57, 1-(3,5-Dichloro-phenyl)-3-[4-(pyridin-4-yloxy)-benzyl]-urea]: the IC50 was 1.2 µM.
For the compound `CNC(=O)c1cc(Oc2ccc(CNC(=O)Nc3cc(Cl)c(C)cc3OC)cc2F)ccn1` [compound 216, 4-{4-[3-(5-Chloro-2-methoxy-4-methyl-phenyl)-ureidomethyl]-2-fluoro-phenoxy}-pyridine-2-carboxylic acid methylamide], the IC50 came to 0.043 µM.
For the compound `O=C(NCc1ccc(Oc2ccncc2)cc1)Nc1ccc(OC(F)(F)F)cc1` [compound 55, 1-[4-(Pyridin-4-yloxy)-benzyl]-3-(4-trifluoromethoxy-phenyl)-urea], the IC50 was determined as 7.5 µM.
Still for that read-out and setting: the figure for `CNC(=O)c1cc(Oc2ccc(CNC(=O)Nc3cccnc3)cc2)ccn1` [compound 88, 4-{4-[(3-Pyridin-3-yl-ureido)-methyl]-phenoxy}-pyridine-2-carboxylic acid methylamide] is 15 µM; for `CNC(=O)c1cc(Oc2ccc(CNC(=O)Nc3cc(OC)c([N+](=O)[O-])cc3OC)cc2)ccn1` [compound 81, 4-{4-[3-(2,5-Dimethoxy-4-nitro-phenyl)-ureidomethyl]-phenoxy}-pyridine-2-carboxylic acid methylamide] it is 0.23 µM; for `CNC(=O)c1cc(Oc2ccc(CNC(=O)Nc3cc(C(F)(F)F)ccc3OCCN(C)C)cc2)ccn1` [compound 77, 4-(4-{3-[2-(2-Dimethylamino-ethoxy)-5-trifluoromethyl-phenyl]-ureidomethyl}-phenoxy)-pyridine-2-carboxylic acid methylamide] it is 0.078 µM.
Still for that read-out and setting: for `O=C(NCc1ccc(Oc2ccncc2)cc1)Nc1ccccc1Br` [compound 48, 1-(2-Bromo-phenyl)-3-[4-(pyridin-4-yloxy)-benzyl]-urea] the value was ≥ 100 µM.
As for `Cc1cccc(NC(=O)NCc2ccc(Oc3ccncc3)cc2)c1C` [compound 24], the IC50 is ≥ 100 µM.
Take `CNC(=O)c1cc(Oc2ccc(CNC(=O)Nc3cc(C(F)(F)F)ccc3OCCOC)cc2C)ccn1` [compound 168, 4-(4-{3-[2-(2-Methoxy-ethoxy)-5-trifluoromethyl-phenyl]-ureidomethyl}-2-methyl-phenoxy)-pyridine-2-carboxylic acid methylamide]: the IC50 stood at 0.13 µM.
As for `Cc1cc(C)cc(NC(=O)NCc2ccc(Oc3ccncc3)cc2)c1` [compound 44, 1-(3,5-Dimethyl-phenyl)-3-[4-(pyridin-4-yloxy)-benzyl]-urea], the IC50 was found to be 1.8 µM.
The same measure, in the same setting: the figure for `CNC(=O)c1cc(Oc2ccc(CNC(=O)Nc3cc(C)c(Cl)cc3OCCN3CCOCC3)cc2C)ccn1` [compound 138, 4-(4-{3-[4-Chloro-5-methyl-2-(2-morpholin-4-yl-ethoxy)-phenyl]-ureidomethyl}-2-methyl-phenoxy)-pyridine-2-carboxylic acid methylamide] is 0.31 µM; for `CCN(CC)CCOc1cc(Cl)c(C)cc1NC(=O)NCc1ccc(Oc2ccnc(C(=O)NC)c2)c(C)c1` [compound 136, 4-(4-{3-[4-Chloro-2-(2-diethylamino-ethoxy)-5-methyl-phenyl]-ureidomethyl}-2-methyl-phenoxy)-pyridine-2-carboxylic acid methylamide] it is 0.39 µM; for `CCc1ccc(NC(=O)NCc2ccc(Oc3ccncc3)cc2)cc1` [compound 52, 1-(4-Ethyl-phenyl)-3-[4-(pyridin-4-yloxy)-benzyl]-urea] it is 9.9 µM.
On the same count and under the same terms, for `CNC(=O)c1cc(Oc2ccc(CNC(=O)Nc3cc(C(F)(F)F)c(Cl)cc3OCCN3CCCC3)cc2)ccn1` [compound 129, 4-(4-{3-[4-Chloro-2-(2-pyrrolidin-1-yl-ethoxy)-5-trifluoromethyl-phenyl]-ureidomethyl}-phenoxy)-pyridine-2-carboxylic acid methylamide] the value was 0.25 µM.
As to `COc1cc(Cl)c(C)cc1NC(=O)NCc1ccc(Oc2ccnc3cc(C)oc23)c(C)c1` [compound 252, 1-(4-Chloro-2-methoxy-5-methyl-phenyl)-3-[3-methyl-4-(2-methyl-furo[3,2-b]pyridin-7-yloxy)-benzyl]-urea], the IC50 turned out to be 0.75 µM.
`CNC(=O)c1cc(Oc2ccc(CNC(=O)Nc3cc(C)c(Cl)cc3OCCN(C)C(=O)OC(C)(C)C)cc2)ccn1` [compound 244, [2-(5-Chloro-4-methyl-2-{3-[4-(2-methylcarbamoyl-pyridin-4-yloxy)-benzyl]-ureido}-phenoxy)-ethyl]-methyl-carbamic acid tert-butyl ester]: the IC50 stood at 0.62 µM.
On the same count and under the same terms, the figure for `CNC(=O)c1cc(Oc2ccc(CNC(=O)Nc3cc(C)c(Cl)cc3OC)cc2C)ccn1` [compound 119, 4-{4-[3-(4-Chloro-2-methoxy-5-methyl-phenyl)-ureidomethyl]-2-methyl-phenoxy}-pyridine-2-carboxylic acid methylamide] is 0.21 µM; for `Cc1cc(NC(=O)NCc2ccc(Oc3ccncn3)c(C)c2)c(OCCN(C)C)cc1Cl` [compound 250, 1-[4-Chloro-2-(2-dimethylamino-ethoxy)-5-methyl-phenyl]-3-[3-methyl-4-(pyrimidin-4-yloxy)-benzyl]-urea] it is 1.2 µM; for `COc1ccc(NC(=O)NCc2ccc(Oc3ccncc3)cc2)cc1Cl` [compound 60, 1-(3-Chloro-4-methoxy-phenyl)-3-[4-(pyridin-4-yloxy)-benzyl]-urea] it is 2.8 µM.
For `CCN(CC)CCOc1cc(Cl)c(C)cc1NC(=O)NCc1ccc(Oc2ccnc(C(=O)NC)c2)cc1` [compound 117, 4-(4-{3-[4-Chloro-2-(2-diethylamino-ethoxy)-5-methyl-phenyl]-ureidomethyl}-phenoxy)-pyridine-2-carboxylic acid methylamide], the IC50 is 0.425 µM.
